PubChem BioAssay AID2202554 (NIEHS Division of Translational Toxicology (DTT))
Results filed as inconclusive are left out. Activity calls are given as the source filed them. The rule behind the calls is not given here.

tested on: S. typhimurium/E. coli reverse mutation, colony counts; assay: Bacterial reverse mutation test (aka Ames test) summary data
Method in brief: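 S. typhimurium his⁻ strains (TA97–TA1538) and E. coli WP2 uvrA pKM101 trp⁻, dosed over a range with or without rat, hamster or mouse liver S9. Preincubated 20 min at 37° C (or plate incorporation), plated in agar, incubated usually two days. Revertant colonies counted against negative controls.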

SMILES	outcome
O=C1NC2NC(=O)NC2N1 (centres undefined)	inactive; negative
NNC(N)=O	inactive; negative
C=CCOC(=O)c1ccccc1N	inactive; negative
OCCOCCOCCO	active; positive
Cc1coc2c1CCC(C)C2 (centres undefined)	inactive; negative
CN=c1ccc2nc3ccc(N)cc3sc-2c1	active; positive
CN(C)CCN(Cc1ccccc1)c1ccccn1	inactive; negative
Cc1cc(-c2ccc(N=Nc3c(S(=O)(=O)O)cc4cc(S(=O)(=O)O)cc(O)c4c3O)c(C)c2)ccc1N=Nc1c(S(=O)(=O)O)cc2cc(S(=O)(=O)O)cc(O)c2c1O	inactive; negative
CC(C)=CCCC(C)=CC=O	inactive; negative
CCCN(CCC)S(=O)(=O)c1ccc(C(=O)O)cc1	inactive; negative
COc1cc(-c2ccc(N=Nc3cc(S(=O)(=O)O)c4ccccc4c3O)c(OC)c2)ccc1N=Nc1cc(S(=O)(=O)O)c2ccccc2c1N	inactive; negative
ClCC1CO1 (centres undefined)	active; positive
O=C1CCC(=O)O1	inactive; negative
ClCc1cccnc1	active; positive
O=c1cc(-c2ccccc2)oc2ccc3ccccc3c12	inactive; negative
N#CCCC#N	inactive; negative
CCCCC(CC)COC(=O)c1ccc(C(=O)OCC(CC)CCCC)c(C(=O)OCC(CC)CCCC)c1 (centres undefined)	inactive; negative
O=C(O)c1ccccc1	inactive; negative
CCCCCCOC(=O)c1ccccc1	inactive; negative
CC(=O)c1c(C)c([N+](=O)[O-])c(C(C)(C)C)c([N+](=O)[O-])c1C	inactive; negative
Cc1cc(-c2ccc(N=Nc3ccc4c(S(=O)(=O)O)cc(S(=O)(=O)O)c(N)c4c3O)c(C)c2)ccc1N=Nc1ccc2c(S(=O)(=O)O)cc(S(=O)(=O)O)c(N)c2c1O	active; positive
NC(=S)Nc1ccccc1	inactive; negative
Cc1ccccc1N	active; positive
CCCCC(CC)CN (centres undefined)	inactive; negative
Cc1ccc([N+](=O)[O-])c(C(=O)O)c1	active; positive
CCOP(=S)(OCC)Oc1cc(C)nc(C(C)C)n1	inactive; negative

SMILES	outcome
C=CC(=O)OCCOCCOC(=O)C=C	inactive; negative
OCC1CCC(CO)CC1 (centres undefined)	inactive; negative
OCCOc1ccccc1	inactive; negative
N#CC(Cl)(Cl)Cl	active; weakly positive
O=C(O)C(=O)O	inactive; negative
O=C(NCO)NCO	active; positive
Clc1cc(Cl)c(Cl)cc1Cl	inactive; negative
Oc1cccc2cccnc12	active; positive
C[N+](C)(C)Cc1ccccc1	inactive; negative
Oc1cc2c(cc1O)[C@@H]1c3ccc(O)c(O)c3OC[C@]1(O)C2	inactive; negative
NC(=O)c1cnccn1	inactive; negative
Nc1ccc(Cl)cc1N	active; positive
CCC(=O)O	inactive; negative
CC1(C)S[C@@H]2[C@H](NC(=O)[C@H](N)c3ccccc3)C(=O)N2[C@H]1C(=O)O	inactive; negative
CN(C)c1ccc(N)cc1	active; positive
ClCBr	active; positive
C=CCc1ccc(O)c(OC)c1	inactive; negative
CCCCOCC1CO1 (centres undefined)	active; positive
Cn1cnc2c1c(=O)[nH]c(=O)n2C	inactive; negative
COc1ccc(O)cc1	inactive; negative
COC(=O)[C@H]1[C@H]2C[C@@H]3c4[nH]c5cc(OC)ccc5c4CCN3C[C@H]2C[C@@H](OC(=O)c2cc(OC)c(OC)c(OC)c2)[C@@H]1OC	inactive; negative
Nc1cccc(Cl)c1	inactive; negative
N#CSCSc1nc2ccccc2s1	active; positive
c1ccc2cc3c(cc2c1)-c1cccc2cccc-3c12	active; positive
CCOc1ccc(NC(C)=O)cc1	inactive; negative
N#CCCC(Br)(C#N)CBr (centres undefined)	inactive; negative

SMILES	outcome
OCC(Cl)Cl	active; weakly positive
C=C(Cl)CCl	active; positive
O=C=Nc1ccc(Cc2ccc(N=C=O)cc2)cc1	inactive; negative
CCCCC(CC)COCCCN (centres undefined)	inactive; negative
O=C1CCCO1	inactive; negative
ClC(Cl)(Cl)C(Cl)(Cl)Cl	inactive; negative
CC(C)(C)c1ccc(OCC2CO2)cc1 (centres undefined)	active; positive
C#C[C@]1(O)CC[C@H]2[C@@H]3CCc4cc(O)ccc4[C@H]3CC[C@@]21C	inactive; negative
O=[N+]([O-])c1cccc2cccc([N+](=O)[O-])c12	active; positive
CC[N+](=O)[O-]	inactive; negative
O=C/C=C/O	inactive; negative
O=C(O)C(F)(F)C(F)(F)C(F)(F)C(F)(F)C(F)(F)F	inactive; negative
CC(=O)CC(=O)N(C)C	inactive; negative
O=C1CCCCCN1	inactive; negative
C=Cc1ccccn1	active; positive
CCCCOC(=O)c1ccc(N)cc1	inactive; negative
O=C1O[C@H](CO)[C@@H](O)[C@H](O)[C@H]1O	inactive; negative
CCCCC(CC)COC(=O)c1ccc(N(C)C)cc1 (centres undefined)	inactive; negative
Clc1ccc(Cl)cc1	inactive; negative
S=c1[nH]c2ccccc2[nH]1	inactive; negative
CCCCC/C=C\C/C=C\CCCCCCCC(=O)O	inactive; negative
N#CCCCCC#N	inactive; negative
CC1=C(/C=C/C(C)=C/C=C/C(C)=C\C=O)C(C)(C)CCC1	active; weakly positive
CCCCCCCCCCCCCCCCC1CO1 (centres undefined)	inactive; negative
NC(=O)Nc1nc2ccccc2[nH]1	active; positive
CCCCOc1ccc(C=Nc2ccc(CC)cc2)cc1	active; weakly positive

SMILES	outcome
Nc1cc([N+](=O)[O-])ccc1C(=O)O	active; positive
O=Cc1c(Cl)cccc1Cl	inactive; negative
CCNNCC	inactive; negative
O=c1oc2c(O)c(O)cc3c(=O)oc4c(O)c(O)cc1c4c23	inactive; negative
CC(O)c1ccccc1 (centres undefined)	inactive; negative
Cc1cccc(C)c1[N+](=O)[O-]	active; weakly positive
C=C(C)c1ccccc1	inactive; negative
CCCC=NO	active; weakly positive
c1ccc(N(c2ccccc2)c2ccccc2)cc1	inactive; negative
O=NO	active; positive
CC(=O)Oc1ccccc1C(=O)O	inactive; negative
CN(C)C(=S)[S-].CN(C)C(=S)[S-].[Pb+2]	active; positive
Nc1ccc2ccccc2c1	active; positive
CCCCCCCCCCCCCOC(=O)c1ccccc1C(=O)OCCCCCCCCCCCCC	inactive; negative
O=C(O)CSCC(=O)O	inactive; negative
OC[P+](CO)(CO)CO	inactive; negative
CCOP(=S)(OCC)OP(=S)(OCC)OCC	active; positive
Nc1nc2ncc(CNc3ccc(C(=O)N[C@@H](CCC(=O)O)C(=O)O)cc3)nc2c(=O)[nH]1	inactive; negative
CNC(=O)NC	inactive; negative
CC(C)=CCl	active; positive
CC(CN1c2ccccc2Sc2ccccc21)N(C)C (centres undefined)	inactive; negative
O=C(O)CCCC(=O)O	inactive; negative
CC(=O)O[C@]1(C(C)=O)CC[C@H]2[C@@H]3C[C@H](C)C4=CC(=O)CC[C@]4(C)[C@H]3CC[C@@]21C	inactive; negative
O=C(OC1CCCCC1)c1ccccc1C(=O)OC1CCCCC1	inactive; negative
CN(C)C(=O)Nc1ccc(Cl)cc1	inactive; negative
NCCCN	inactive; negative

SMILES	outcome
Nc1nc(N)nc(N)n1	inactive; negative
NC(=O)c1ccccc1[N+](=O)[O-]	active; positive
O=C1OC(c2ccc(O)cc2)(c2ccc(OC3O[C@H](C(=O)O)[C@@H](O)[C@H](O)[C@H]3O)cc2)c2ccccc21 (some centres undefined)	inactive; negative
CC(COC(=O)c1ccccc1)(COC(=O)c1ccccc1)COC(=O)c1ccccc1	inactive; negative
COc1ccc(OC)cc1	inactive; negative
CC(=O)C(C)=O	active; positive
O=C(O)CC[N+](=O)[O-]	active; positive
Nc1ccc(Cl)cc1	active; positive
O.O=S(=O)([O-])[O-].[Mn+2]	inactive; negative
CCCCC(CC)COC(=O)CCCCCCCCC(=O)OCC(CC)CCCC (centres undefined)	inactive; negative
CNNC	inactive; negative
Cc1ccc(O)cc1	inactive; negative
NC(=O)c1ccccc1C(N)=O	inactive; negative
O=C(O)COc1ccc(Cl)cc1Cl	inactive; negative
O=C(OCC1CO1)c1cccc(C(=O)OCC2CO2)c1 (centres undefined)	active; positive
Clc1ccc2ccccc2c1	inactive; negative
Oc1cc(Cl)c(Cl)cc1Cl	inactive; negative
CCCC[n+]1ccccc1	inactive; negative
Nc1ccc(O)c([N+](=O)[O-])c1	active; positive
O=Cc1ccc(Cl)c(Cl)c1	inactive; negative
C=CC(=O)OCCCCCCOC(=O)C=C	inactive; negative
CCCCCCCCCCCCCC(=O)[O-].CCCCCCCCCCCCCC(=O)[O-].[Zn+2]	inactive; negative
CCOC(=O)CC	inactive; negative
ClC(Cl)=C(Cl)Cl	inactive; negative
CC(=O)CC(=O)Nc1ccccc1	inactive; negative
